Consider 19 compounds from ChEMBL document CHEMBL3991601, “The target landscape of clinical kinase drugs” (Science, 2017).

Activity calls are given as the source filed them.

One may read the Kd as the constant that tells how readily two partners part at equilibrium.

Assay [1] concerns the target T1, AarF domain-containing protein kinase 1 (Homo sapiens, UniProt Q86TW2).
T1 sequence (Q86TW2 whole entry): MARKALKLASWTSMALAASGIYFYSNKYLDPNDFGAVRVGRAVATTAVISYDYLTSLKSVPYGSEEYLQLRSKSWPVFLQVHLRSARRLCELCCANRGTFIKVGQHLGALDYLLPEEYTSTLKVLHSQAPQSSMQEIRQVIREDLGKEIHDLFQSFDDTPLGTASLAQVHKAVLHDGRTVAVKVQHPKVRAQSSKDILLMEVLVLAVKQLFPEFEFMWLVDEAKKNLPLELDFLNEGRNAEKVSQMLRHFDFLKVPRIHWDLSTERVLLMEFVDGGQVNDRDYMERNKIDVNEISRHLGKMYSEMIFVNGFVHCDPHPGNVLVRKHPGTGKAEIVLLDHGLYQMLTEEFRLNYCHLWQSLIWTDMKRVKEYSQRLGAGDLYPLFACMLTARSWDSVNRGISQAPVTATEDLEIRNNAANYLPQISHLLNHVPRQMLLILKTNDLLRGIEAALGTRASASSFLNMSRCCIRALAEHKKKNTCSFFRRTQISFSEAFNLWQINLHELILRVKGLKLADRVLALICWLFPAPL

The next assay has as its target T2, Aurora kinase A (Homo sapiens, UniProt O14965).
T2 sequence (O14965 whole entry): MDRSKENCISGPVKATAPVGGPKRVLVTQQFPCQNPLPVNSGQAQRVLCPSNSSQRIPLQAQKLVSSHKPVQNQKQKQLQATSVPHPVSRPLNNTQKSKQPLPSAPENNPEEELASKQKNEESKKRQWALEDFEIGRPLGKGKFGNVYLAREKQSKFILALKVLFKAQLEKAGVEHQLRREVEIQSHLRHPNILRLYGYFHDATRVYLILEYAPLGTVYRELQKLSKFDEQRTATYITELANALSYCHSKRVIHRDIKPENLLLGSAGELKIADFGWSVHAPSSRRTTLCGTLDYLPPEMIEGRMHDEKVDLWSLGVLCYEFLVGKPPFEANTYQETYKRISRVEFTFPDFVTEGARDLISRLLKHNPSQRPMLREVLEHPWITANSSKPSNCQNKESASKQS

The target in assay [2] is Serine/threonine-protein kinase B-raf (Homo sapiens, UniProt P15056).
Sequence of Serine/threonine-protein kinase B-raf (P15056 whole entry): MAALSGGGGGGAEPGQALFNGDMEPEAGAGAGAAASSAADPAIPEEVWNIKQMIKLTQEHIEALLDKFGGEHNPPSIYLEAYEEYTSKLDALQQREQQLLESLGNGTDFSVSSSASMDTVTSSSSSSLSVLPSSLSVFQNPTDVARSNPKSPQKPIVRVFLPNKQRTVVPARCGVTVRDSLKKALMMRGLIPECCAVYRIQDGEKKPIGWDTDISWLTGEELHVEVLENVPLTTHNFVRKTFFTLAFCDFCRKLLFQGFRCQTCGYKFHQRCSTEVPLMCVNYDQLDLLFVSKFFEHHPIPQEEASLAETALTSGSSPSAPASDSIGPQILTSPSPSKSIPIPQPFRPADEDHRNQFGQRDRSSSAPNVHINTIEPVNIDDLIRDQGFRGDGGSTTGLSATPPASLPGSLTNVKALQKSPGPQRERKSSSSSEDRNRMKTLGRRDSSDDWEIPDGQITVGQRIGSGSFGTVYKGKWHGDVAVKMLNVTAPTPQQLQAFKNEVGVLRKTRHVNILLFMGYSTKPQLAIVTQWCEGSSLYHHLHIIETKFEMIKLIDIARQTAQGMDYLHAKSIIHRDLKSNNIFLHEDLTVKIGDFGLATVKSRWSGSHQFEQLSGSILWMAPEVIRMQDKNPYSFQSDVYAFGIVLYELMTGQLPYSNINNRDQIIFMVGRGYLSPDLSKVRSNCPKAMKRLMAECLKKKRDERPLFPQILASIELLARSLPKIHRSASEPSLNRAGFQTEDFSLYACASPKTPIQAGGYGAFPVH
The target of assay [3] is T3, Calcium/calmodulin-dependent protein kinase type IV (Homo sapiens, UniProt Q16566).
T3 sequence (Q16566 whole entry): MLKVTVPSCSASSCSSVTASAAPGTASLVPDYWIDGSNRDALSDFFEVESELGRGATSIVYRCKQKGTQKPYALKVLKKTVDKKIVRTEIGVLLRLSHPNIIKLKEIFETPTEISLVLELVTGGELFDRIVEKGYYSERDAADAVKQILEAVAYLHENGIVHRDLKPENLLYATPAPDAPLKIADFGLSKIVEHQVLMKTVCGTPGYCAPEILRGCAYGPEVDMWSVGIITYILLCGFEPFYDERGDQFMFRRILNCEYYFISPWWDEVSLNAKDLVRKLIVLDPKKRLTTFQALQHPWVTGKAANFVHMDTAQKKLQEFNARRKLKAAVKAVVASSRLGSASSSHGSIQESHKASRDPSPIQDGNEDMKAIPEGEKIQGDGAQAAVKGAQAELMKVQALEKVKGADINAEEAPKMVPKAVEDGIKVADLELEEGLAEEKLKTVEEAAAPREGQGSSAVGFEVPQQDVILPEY

For assay [4], the target named is Chromodomain-helicase-DNA-binding protein 4 (Homo sapiens, UniProt Q14839).
Sequence of Chromodomain-helicase-DNA-binding protein 4 (Q14839 whole entry): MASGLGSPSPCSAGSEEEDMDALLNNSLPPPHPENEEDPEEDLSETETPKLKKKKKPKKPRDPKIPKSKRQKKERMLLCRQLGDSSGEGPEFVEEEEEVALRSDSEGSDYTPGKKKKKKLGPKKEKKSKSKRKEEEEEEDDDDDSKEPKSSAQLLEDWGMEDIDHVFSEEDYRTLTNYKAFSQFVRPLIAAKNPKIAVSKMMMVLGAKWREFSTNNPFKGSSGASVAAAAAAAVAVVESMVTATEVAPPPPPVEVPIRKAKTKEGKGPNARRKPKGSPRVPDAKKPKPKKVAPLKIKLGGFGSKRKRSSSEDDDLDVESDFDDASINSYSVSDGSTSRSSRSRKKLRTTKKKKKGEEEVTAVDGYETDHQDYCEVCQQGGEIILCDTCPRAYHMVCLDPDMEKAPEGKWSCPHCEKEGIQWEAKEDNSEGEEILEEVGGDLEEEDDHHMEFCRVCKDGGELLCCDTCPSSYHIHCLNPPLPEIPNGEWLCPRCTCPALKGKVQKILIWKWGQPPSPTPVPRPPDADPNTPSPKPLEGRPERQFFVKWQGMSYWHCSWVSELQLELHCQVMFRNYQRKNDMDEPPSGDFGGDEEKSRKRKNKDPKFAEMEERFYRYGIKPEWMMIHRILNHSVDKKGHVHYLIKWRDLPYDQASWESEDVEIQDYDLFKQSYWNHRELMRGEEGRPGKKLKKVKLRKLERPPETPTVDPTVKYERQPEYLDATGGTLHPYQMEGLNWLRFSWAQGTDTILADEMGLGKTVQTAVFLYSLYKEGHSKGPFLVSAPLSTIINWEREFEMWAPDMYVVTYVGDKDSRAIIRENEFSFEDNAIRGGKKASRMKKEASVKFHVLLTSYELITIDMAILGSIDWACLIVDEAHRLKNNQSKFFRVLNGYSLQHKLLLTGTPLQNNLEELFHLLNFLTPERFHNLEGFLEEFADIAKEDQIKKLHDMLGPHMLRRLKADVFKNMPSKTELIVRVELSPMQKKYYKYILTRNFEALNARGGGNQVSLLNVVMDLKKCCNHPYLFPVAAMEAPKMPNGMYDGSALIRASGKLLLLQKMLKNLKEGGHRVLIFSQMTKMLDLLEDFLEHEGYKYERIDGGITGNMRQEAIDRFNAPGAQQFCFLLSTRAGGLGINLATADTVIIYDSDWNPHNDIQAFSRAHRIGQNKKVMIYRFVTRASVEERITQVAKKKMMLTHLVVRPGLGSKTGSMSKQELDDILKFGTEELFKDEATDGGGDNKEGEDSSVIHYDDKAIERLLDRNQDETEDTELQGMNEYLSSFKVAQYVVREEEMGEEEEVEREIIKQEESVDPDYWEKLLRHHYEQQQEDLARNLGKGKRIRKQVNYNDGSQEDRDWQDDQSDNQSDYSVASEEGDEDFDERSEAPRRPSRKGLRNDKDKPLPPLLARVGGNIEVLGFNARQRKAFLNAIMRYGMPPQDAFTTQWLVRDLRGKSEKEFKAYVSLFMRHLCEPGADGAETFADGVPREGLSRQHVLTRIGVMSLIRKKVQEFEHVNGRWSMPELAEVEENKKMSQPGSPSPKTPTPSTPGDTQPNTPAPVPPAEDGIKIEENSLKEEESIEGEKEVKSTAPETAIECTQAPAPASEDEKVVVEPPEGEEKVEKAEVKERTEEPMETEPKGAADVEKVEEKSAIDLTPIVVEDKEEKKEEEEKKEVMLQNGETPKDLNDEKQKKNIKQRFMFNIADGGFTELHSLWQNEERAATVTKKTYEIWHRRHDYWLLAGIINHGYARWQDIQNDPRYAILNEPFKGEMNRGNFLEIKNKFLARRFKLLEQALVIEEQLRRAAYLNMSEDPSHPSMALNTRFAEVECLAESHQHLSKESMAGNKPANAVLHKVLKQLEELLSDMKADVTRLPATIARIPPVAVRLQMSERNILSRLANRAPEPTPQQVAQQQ
Assay [5] deals with T4, Phenylalanine--tRNA ligase beta subunit (Homo sapiens, UniProt Q9NSD9).
T4 sequence (Q9NSD9 whole entry): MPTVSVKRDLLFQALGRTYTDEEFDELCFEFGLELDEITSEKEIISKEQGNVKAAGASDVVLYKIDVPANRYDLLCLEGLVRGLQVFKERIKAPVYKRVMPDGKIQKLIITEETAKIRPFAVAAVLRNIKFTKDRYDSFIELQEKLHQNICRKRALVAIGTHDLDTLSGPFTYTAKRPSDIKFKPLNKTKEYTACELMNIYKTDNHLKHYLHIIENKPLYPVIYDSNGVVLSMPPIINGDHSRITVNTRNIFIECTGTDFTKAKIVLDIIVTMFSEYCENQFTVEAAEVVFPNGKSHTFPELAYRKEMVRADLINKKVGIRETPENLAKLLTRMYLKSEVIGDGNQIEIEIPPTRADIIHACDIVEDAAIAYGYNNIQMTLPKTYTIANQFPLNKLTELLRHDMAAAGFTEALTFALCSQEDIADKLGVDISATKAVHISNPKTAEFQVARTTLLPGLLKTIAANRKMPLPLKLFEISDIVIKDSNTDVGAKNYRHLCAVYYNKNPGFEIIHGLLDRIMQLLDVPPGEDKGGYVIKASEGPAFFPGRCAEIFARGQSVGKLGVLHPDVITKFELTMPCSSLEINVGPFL

Assay [6] addresses cAMP-dependent protein kinase type II-alpha regulatory subunit (Homo sapiens, UniProt P13861).
Assay [7] deals with cAMP-dependent protein kinase catalytic subunit gamma (Homo sapiens, UniProt P22612).
Sequence of cAMP-dependent protein kinase catalytic subunit gamma (P22612 whole entry): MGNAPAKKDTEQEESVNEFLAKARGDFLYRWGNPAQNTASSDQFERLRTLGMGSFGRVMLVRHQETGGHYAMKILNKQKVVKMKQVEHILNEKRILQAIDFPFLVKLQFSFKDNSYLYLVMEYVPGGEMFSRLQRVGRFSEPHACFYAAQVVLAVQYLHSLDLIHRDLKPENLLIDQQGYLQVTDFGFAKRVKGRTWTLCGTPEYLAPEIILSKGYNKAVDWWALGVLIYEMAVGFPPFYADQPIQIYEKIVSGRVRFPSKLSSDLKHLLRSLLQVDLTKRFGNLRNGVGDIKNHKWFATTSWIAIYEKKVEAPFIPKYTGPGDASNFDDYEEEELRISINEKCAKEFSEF
Further: in the data inactive means no Kd found up to 30 µM.

Sequence of cAMP-dependent protein kinase type II-alpha regulatory subunit (P13861 whole entry): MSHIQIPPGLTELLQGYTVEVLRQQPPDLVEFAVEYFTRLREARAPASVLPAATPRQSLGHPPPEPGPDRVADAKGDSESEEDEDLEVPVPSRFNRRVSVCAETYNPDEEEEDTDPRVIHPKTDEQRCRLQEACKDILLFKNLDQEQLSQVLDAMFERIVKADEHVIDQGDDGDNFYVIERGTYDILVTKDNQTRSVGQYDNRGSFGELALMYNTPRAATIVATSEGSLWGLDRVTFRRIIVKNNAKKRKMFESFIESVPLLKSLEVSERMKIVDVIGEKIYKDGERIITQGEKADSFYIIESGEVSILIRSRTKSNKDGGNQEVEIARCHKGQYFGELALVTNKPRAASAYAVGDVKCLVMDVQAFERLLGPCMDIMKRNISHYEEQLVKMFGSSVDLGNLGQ

As to `COc1cc2ncnc(Nc3ccc(F)c(Cl)c3)c2cc1NC(=O)/C=C/CN1CCCCC1` [DACOMITINIB ANHYDROUS], the Kd (in assay [1]; at Aurora kinase A; in assay [2]; in assay [3]; in assay [4]; in assay [5]) was > 30 µM (inactive) throughout. Also, in assay [6], the Kd was > 30 µM (inactive).
Consider `O=C(NOC[C@H](O)CO)c1ccc(F)c(F)c1Nc1ccc(I)cc1F` [MIRDAMETINIB], for which the Kd (in assay [1]; on Aurora kinase A; in assay [3]; in assay [4]; in assay [5]; in assay [7]) was > 30 µM (inactive) in each case. For the same compound, the Kd in assay [6] is > 30 µM (inactive).
Turning to `CNC(=O)c1cccc(-c2ccc3c(N4CCOC[C@@H]4C)nc(N4CCOC[C@@H]4C)nc3n2)c1` [VISTUSERTIB], the Kd (in assay [1]; at Aurora kinase A; in assay [2]; in assay [3]; in assay [4]; in assay [5]) was > 30 µM (inactive) in each case. For the same compound, the Kd in assay [6] was > 30 µM (inactive).
Turning to `O=C(Nc1ccc(OC(F)(F)F)cc1)c1sccc1NCc1ccnc2ccccc12` [OSI-930], the Kd (in assay [1]; on Aurora kinase A; in assay [2]; in assay [3]; in assay [4]; in assay [5]) was > 30 µM (inactive) throughout. Also, the Kd in assay [6] is > 30 µM (inactive).
With `COc1cc2c(N3CCN(C(=O)Nc4ccc(OC(C)C)cc4)CC3)ncnc2cc1OCCCN1CCCCC1` [TANDUTINIB], the Kd in assay [1] is > 30 µM (inactive); in assay [4], > 30 µM (inactive); in assay [5] it was 0.006 µM; in assay [7] it was > 30 µM (inactive); in assay [6], > 30 µM (inactive).
Consider `O=c1[nH]c([C@@H]2CCCN2)nc2c1oc1ccc(Cl)cc12`, for which the Kd (in assay [1]; on Aurora kinase A; in assay [2]; in assay [3]; in assay [4]; in assay [6]) was > 30 µM (inactive) each time.
In the case of `COc1cc2c(Oc3ccc4[nH]c(C)cc4c3F)ncnc2cc1OCCCN1CCCC1` [CEDIRANIB], the Kd in assay [1], in assay [4], in assay [5] and in assay [6] was > 30 µM (inactive) throughout.
For the compound `Cn1cnc2c(F)c(Nc3ccc(Br)cc3Cl)c(C(=O)NOCCO)cc21` [SELUMETINIB], the Kd in assay [1], in assay [4], in assay [5] and in assay [6] was > 30 µM (inactive) throughout.
With `C#Cc1cccc(Nc2ncnc3cc4c(cc23)OCCOCCOCCO4)c1` [ICOTINIB], the Kd (in assay [1]; on Aurora kinase A; in assay [2]; in assay [3]; in assay [4]; in assay [5]) was > 30 µM (inactive) in each case. The Kd in assay [6] is > 30 µM (inactive).
With `CN(C)C/C=C/C(=O)Nc1cc2c(Nc3ccc(F)c(Cl)c3)ncnc2cc1O[C@H]1CCOC1` [AFATINIB], the Kd in assay [1], in assay [4], in assay [5], in assay [7] and in assay [6] was > 30 µM (inactive) throughout.
With `Cn1c(=O)c(F)c(Nc2ccc(I)cc2F)c2c(=O)n(C[C@@H](O)CO)cnc21` [TAK-733], the Kd (in assay [1]; on Aurora kinase A; in assay [2]; in assay [3]; in assay [4]; in assay [5]) was > 30 µM (inactive) in each case. Also, the Kd in assay [6] was > 30 µM (inactive).
Take `CC1(C)CNc2cc(NC(=O)c3cccnc3NCc3ccncc3)ccc21` [MOTESANIB]: the Kd in assay [1], in assay [4], in assay [5] and in assay [6] was > 30 µM (inactive) throughout.
As for `S=C(NCc1ccc2c(c1)OCO2)N1CCN(c2ncnc3c2oc2ccccc23)CC1` [AMUVATINIB], the Kd (in assay [1]; at Aurora kinase A; in assay [2]; in assay [4]; in assay [5]; in assay [6]) was > 30 µM (inactive) throughout.
For `Cc1ccc(C(=O)Nc2ccc(Oc3cc4cnn(C)c4cc3-c3cn[nH]c3)c(F)c2)c(=O)n1-c1ccc(F)cc1` [MERESTINIB], the Kd in assay [1] was > 30 µM (inactive); at Aurora kinase A it was > 30 µM (inactive); in assay [3], 3.26 µM (active); in assay [4], > 30 µM (inactive); in assay [5], > 30 µM (inactive); in assay [6], > 30 µM (inactive).
As for `C[C@@]1(C(=O)Nc2ccc(F)nc2)CCCN1c1nc(Nc2cc(C3CC3)n[nH]2)c2cccn2n1` [BMS-754807], the Kd in assay [1], in assay [4], in assay [5] and in assay [7] was > 30 µM (inactive) in each case.
Consider `C=CC(=O)Nc1cccc(Nc2nc(Nc3ccc(N4CCN(C(C)=O)CC4)cc3OC)ncc2C(F)(F)F)c1` [ROCILETINIB], for which the Kd (in assay [1]; at Aurora kinase A; in assay [3]; in assay [4]; in assay [5]; in assay [7]) was > 30 µM (inactive) throughout.
On to `O=S(=O)(c1cccc2cnccc12)N1CCCNCC1` [FASUDIL], for which the Kd (in assay [1]; on Aurora kinase A; in assay [2]; in assay [3]; in assay [4]; in assay [5]) was > 30 µM (inactive) throughout. Besides, the Kd in assay [6] is > 30 µM (inactive).
For the compound `N#CCNC(=O)c1ccc(-c2ccnc(Nc3ccc(N4CCOCC4)cc3)n2)cc1` [MOMELOTINIB], the Kd was 0.217 µM in assay [1]; > 30 µM (inactive) on Aurora kinase A; > 30 µM (inactive) in assay [2]; > 30 µM (inactive) in assay [3]; > 30 µM (inactive) in assay [5]; > 30 µM (inactive) in assay [6].
With `NC[C@@](O)(c1ccc(Cl)cc1)c1ccc(-c2cn[nH]c2)cc1` [AT-13148], the Kd (in assay [1]; on Aurora kinase A; in assay [2]; in assay [3]; in assay [4]; in assay [5]) was > 30 µM (inactive) throughout. The Kd in assay [6] is > 30 µM (inactive).
